Measurements as given in PubChem BioAssay (NCI).
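All cell lines were grown in 96-well plates and treated with compound for 48 hours. The concentration for 50% growth inhibition is given as GI50. TGI is the concentration that stops growth completely.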

Assays:
Assay in all cases: DTP human tumour cell line panel, 48 h
[1] = tested on: OVCAR-5 ovarian
[2] = tested on: MALME-3M melanoma
[3] = tested on: TK-10 renal
[4] = tested on: DU-145 prostate
[5] = tested on: NCI-H460 lung
[6] = tested on: K-562 leukemia
[7] = tested on: UACC-62 melanoma
[8] = tested on: ACHN renal
[9] = tested on: HCC-2998 colon
[10] = tested on: COLO 205 colon
[11] = tested on: KM12 colon
[12] = tested on: EKVX NSCLC
[13] = tested on: 786-0 renal
[14] = tested on: MDA-MB-435
[15] = tested on: MOLT-4 leukemia
[16] = tested on: NCI/ADR-RES ovarian
[17] = tested on: HT29 colon
[18] = tested on: SF-268 CNS
[19] = tested on: SK-MEL-2 melanoma
[20] = tested on: HL-60(TB) leukemia
[21] = tested on: T-47D breast
[22] = tested on: UACC-257 melanoma
[23] = tested on: RPMI-8226 leukemia
[24] = tested on: SN12C renal
[25] = tested on: SNB-19 CNS
[26] = tested on: A498 renal
[27] = tested on: U251 CNS
[28] = tested on: SF-539 CNS
[29] = tested on: HOP-62 NSCLC
[30] = tested on: SF-295 CNS
[31] = tested on: HCT-116 colon
[32] = tested on: NCI-H226 lung
[33] = tested on: SK-OV-3 ovarian
[34] = tested on: MCF7 breast
[35] = tested on: OVCAR-4 ovarian
[36] = tested on: M14 melanoma
[37] = tested on: RXF 393 renal
[38] = tested on: BT-549 breast
[39] = tested on: NCI-H522 lung
[40] = tested on: SK-MEL-5 melanoma
[41] = tested on: UO-31 renal
[42] = tested on: PC-3 prostate
[43] = tested on: SK-MEL-28 melanoma
[44] = tested on: SR leukemia
[45] = tested on: HS 578T breast
[46] = tested on: MDA-MB-231 breast
[47] = tested on: SNB-75 CNS
[48] = tested on: CAKI-1 renal
[49] = tested on: SW-620 colon
[50] = tested on: HOP-92 NSCLC
[51] = tested on: LOX IMVI melanoma
[52] = tested on: IGROV1 ovarian
[53] = tested on: A549 NSCLC
[54] = tested on: OVCAR-3 ovarian
[55] = tested on: OVCAR-8 ovarian
[56] = tested on: HCT-15 colon
[57] = tested on: CCRF-CEM leukemia

Compound: CCc1cccc2c3c(sc12)C(c1ccc(OC)cc1)C(C#N)=C(/N=C/c1ccc(Cl)cc1)O3 (centres undefined)
- GI50 [1]: 3.97 µM
- TGI [1]: 27.8 µM
- GI50 [2]: 0.921 µM
- TGI [2]: 44.3 µM
- GI50 [3]: 20.5 µM
- TGI [3]: > 100 µM
- GI50 [4]: 3.3 µM
- TGI [4]: > 100 µM
- GI50 [5]: 1.02 µM
- TGI [5]: 10.4 µM
- GI50 [6]: 0.363 µM
- TGI [6]: > 100 µM
- GI50 [7]: 0.54 µM
- TGI [7]: 30.5 µM
- GI50 [8]: 3.16 µM
- TGI [8]: 19.4 µM
- GI50 [9]: 1.79 µM
- TGI [9]: 4.57 µM
- GI50 [10]: 2.2 µM
- TGI [10]: 5 µM
- GI50 [11]: 2.06 µM
- TGI [11]: 33.2 µM
- GI50 [12]: 5.94 µM
- TGI [12]: > 100 µM
- GI50 [13]: 2.2 µM
- TGI [13]: 16.1 µM
- GI50 [14]: 0.227 µM
- TGI [14]: 0.578 µM
- GI50 [15]: 2.25 µM
- TGI [15]: 17.1 µM
- GI50 [16]: 0.55 µM
- TGI [16]: 4.7 µM
- GI50 [17]: 2.31 µM
- TGI [17]: 6.26 µM
- GI50 [18]: 5.6 µM
- TGI [18]: 44.4 µM
- GI50 [19]: 0.987 µM
- TGI [19]: 5.95 µM
- GI50 [20]: 0.563 µM
- TGI [20]: 5.98 µM
- GI50 [21]: 2.43 µM
- TGI [21]: > 100 µM
- GI50 [22]: 16.1 µM
- TGI [22]: > 100 µM
- GI50 [23]: 2.28 µM
- TGI [23]: 7.27 µM
- GI50 [24]: 3.76 µM
- TGI [24]: 19.1 µM
- GI50 [25]: 3.56 µM
- TGI [25]: > 100 µM
- GI50 [26]: 20.1 µM
- TGI [26]: > 100 µM
- GI50 [27]: 3 µM
- TGI [27]: 13.8 µM
- GI50 [28]: 1.59 µM
- TGI [28]: 4.29 µM
- GI50 [29]: 2.5 µM
- TGI [29]: 20.2 µM
- GI50 [30]: 1.26 µM
- TGI [30]: 15.5 µM
- GI50 [31]: 1.07 µM
- TGI [31]: 10.3 µM
- GI50 [32]: 2.59 µM
- TGI [32]: 13.1 µM
- GI50 [33]: 2.42 µM
- TGI [33]: 45.4 µM
- GI50 [34]: 0.859 µM
- TGI [34]: 14.1 µM
- GI50 [35]: 6.65 µM
- TGI [35]: > 100 µM
- GI50 [36]: 1.24 µM
- TGI [36]: 5.17 µM
- GI50 [37]: 0.72 µM
- TGI [37]: 2.56 µM
- GI50 [38]: 4.23 µM
- TGI [38]: 39.7 µM
- GI50 [39]: 0.78 µM
- TGI [39]: 2.7 µM
- GI50 [40]: 2.81 µM
- TGI [40]: 11.8 µM
- GI50 [41]: 1.85 µM
- TGI [41]: 49.6 µM
- GI50 [42]: 1.83 µM
- TGI [42]: 22.1 µM
- GI50 [43]: 4.85 µM
- TGI [43]: 28 µM
- GI50 [44]: 0.361 µM
- TGI [44]: 5.97 µM
- GI50 [45]: 1.9 µM
- TGI [45]: 7.8 µM
- GI50 [46]: 2.95 µM
- TGI [46]: 13.6 µM
- GI50 [47]: 1.35 µM
- TGI [47]: 15.3 µM
- GI50 [48]: 0.595 µM
- TGI [48]: 29.1 µM
- GI50 [49]: 1.14 µM
- TGI [49]: 15.7 µM
- GI50 [50]: 5.48 µM
- TGI [50]: 53.3 µM
- GI50 [51]: 1.87 µM
- TGI [51]: 15 µM
- GI50 [52]: 1.67 µM
- TGI [52]: > 100 µM
- GI50 [53]: 5.39 µM
- TGI [53]: > 100 µM
- GI50 [54]: 0.554 µM
- TGI [54]: 4.49 µM
- GI50 [55]: 2.15 µM
- TGI [55]: 7.09 µM
- GI50 [56]: 0.6 µM
- TGI [56]: 11.2 µM
- GI50 [57]: 0.792 µM
- TGI [57]: 7.96 µM
